{
  "source": "patent US6608076B1",
  "about": "“Camptothecin derivatives and polymeric conjugates thereof” (priority 2002, dated 2003)",
  "tested_on": "human mammary carcinoma (MX-1)",
  "assay": "Efficacy against subcutaneous human mammary carcinoma (MX-1) xenograft in nude mice",
  "assay_type": "in vivo",
  "description": "General Procedures. All reactions were run under an atmosphere of dry nitrogen or argon. Commercial reagents were used without further purification. All PEG compounds were 40 kDa and were dried under vacuum or by azeotropic distillation from toluene prior to use. ^13C NMR spectra were obtained at 75.46 MHz using a Varian Mercurye® 300 NMR spectrometer and deuterated chloroform as the solvent unless otherwise specified. Chemical shifts (δ) are reported in parts per million (ppm) downfield from tetramethylsilane (TMS). All PEG conjugated compounds were dissolved in saline for injection prior to in vivo drug treatments and were given as their camptothecin equivalents (absolute amount of camptothecin given). HPLC method. The reaction mixtures and the purity of intermediates and final products were monitored by a Beckman Coulter System Gold® HPLC instrument employing a ZOBAXO® 300 SB C-8 reversed phase column (150×4.6 mm) or a Phenomenex Jupiter® 300A C18 reversed phase column (150×4.6 mm) with a multiwavelength UV detector, using a gradient of 30-90% of acetonitrile in 0.5% trifluoroacetic acid (TFA) at a flow rate of 1 mL/min.\nThe efficacy of open-form camptothecin analogs against a subcutaneous human mammary carcinoma (MX-1) grown in nude mice was determined as follows. Following at least one week of acclimation, tumors were established by implanting small tumor fragments from donor mice into a single subcutaneous site, on the left axillary flank region of nude mice. The tumor implantation site was observed twice weekly and measured once palpable. The tumor volume for each mouse was determined by measuring two dimensions with calipers and calculated using the formula: tumor volume=(length×width^2). When tumors reached the average volume of approximately 75 mm^3, the mice were divided into their experimental groups, which consists of untreated controls, PEG40,000-ala-20(S)-Camptothecin, compound 8, and compound 18.\nThe mice were sorted to evenly distribute tumor size, grouped into 4 to 5 mice/cage, and ear punched for permanent identification. Drugs were dosed intravenously via the tail vein as a single dose (Qd1). Mouse weight and tumor sizes were measured at the beginning of study and twice weekly through week 5. The overall growth of tumors was calculated as the mean tumor volume at one week following the end of the treatment. A percent treatment over control (T/C) value was also calculated when the control group's median tumor size reached approximately 800-1100 mm^3 and again at one week following treatment. The T/C value in percent is a non-quantitative indication of anti-tumor effectiveness.",
  "data": [
    {"substance": "PEG40,000-ala-20(S)-Camptothecin", "values": [
      {"measurement": "Difference in antitumor activity between the three compounds", "setting": "at equivalent doses", "value": "no significant (P<0.05) difference in the antitumor activity"},
      {"measurement": "Tumor Regression at Day 25 (#/grp)", "setting": "i.v. Qd1 (24 mg/kg/dose), Day 25", "value": "5/5"},
      {"measurement": "T/C (%) At 1000 mm^3", "setting": "i.v. Qd1 (24 mg/kg/dose), median tumor volume treated vs control when control median reached approx. 1000 mm^3, T/C < 42% considered significant", "value": 1.4, "unit": "%"},
      {"measurement": "Tumor volume as compared to control mice", "setting": "i.v. single dose, statistical comparison, P<0.05", "value": "significantly (P<0.05) smaller tumor volumes"},
      {"measurement": "Tumor Volume (mean ± sem) Day 21", "setting": "intravenous single dose Qd1 (24 mg/kg/dose, camptothecin equivalents), established tumors ~75 mm^3, Day 21", "value": "15 ± 5", "unit": "mm^3"}
    ]}
  ]
}
